Data set [1] relates to CCRF-CEM. In words: Cytotoxicity against human CCRF-CEM cells assessed as reduction in cell viability at 25 uM incubated for 72 hrs by MTT assay. Type of data set: functional. In general terms: Tetrazolium dyes change colour on reduction, which living cells bring about.
Data set [2] concerns H9c2. In words: Cytotoxicity against rat H9c2 cells assessed as reduction in cell viability at 5 to 25 uM incubated upto 96 hrs by MTT assay. The data set is classed as cell-based. The following applies: h9c2, 96 h, dose 5-25 µM.
Data set [3] relates to CCRF-CEM. In words: Cytotoxicity against human CCRF-CEM cells assessed as reduction in cell viability at 25 uM incubated for 24 hrs by MTT assay. The data set is classed as functional.
The subject of data set [4] is AGS. In words: Cytotoxicity against human AGS cells assessed as reduction in cell viability at 50 uM incubated for 72 hrs by MTT assay. The data set is classed as functional.
For data set [5], the system named is LLC-PK1. In words: Cytotoxicity against pig LLC-PK1 cells assessed as reduction in cell viability at 50 uM after 24 hrs of incubation by MTT assay. The data set is classed as cell-based, Sus scrofa. Conditions: llc-pk1, 24 h.
Data set [6] has as its system LLC-PK1. In words: Cytotoxicity against pig LLC-PK1 cells assessed as reduction in cell viability at 5 to 50 uM incubated for 72 hrs by MTT assay. Type of data set: cell-based, Sus scrofa. The following applies: llc-pk1, 72 h, dose 5-50 µM.
For data set [7], the system named is CCRF-CEM. In words: Cytotoxicity against human CCRF-CEM cells assessed as reduction in cell viability at 5 to 10 uM after 72 hrs incubation by MTT assay. The data set is classed as functional. The following applies: dose 5-10 µM.
Data set [8] relates to AGS. In words: Cytotoxicity against human AGS cells assessed as reduction in cell viability at 5 to 10 uM incubated for 24 to 72 hrs by MTT assay. Type of data set: functional, cell-based. Conditions: dose 5-10 µM, time 24-72 hrs.
Data set [9] has as its system SK-OV-3. In words: Cytotoxicity against human SK-OV-3 cells assessed as reduction in cell viability at 5 to 25 uM incubated for 24 hrs by MTT assay. The data set is classed as functional. Conditions: dose 5-25 µM.
Data set [10] deals with SK-OV-3. In words: Cytotoxicity against human SK-OV-3 cells assessed as reduction in cell viability at 25 uM incubated for 72 hrs by MTT assay. The data set is classed as functional.
Data set [11] has as its system AGS. In words: Cytotoxicity against human AGS cells assessed as reduction in cell viability at 25 uM incubated for 72 hrs by MTT assay. Type of data set: functional.

Active and inactive are the calls of the source. No cut-off for these calls is given here.

In the case of `COc1cccc2c1C(=O)c1c(O)c3c(c(O)c1C2=O)C[C@@](O)(C(=O)CO)C[C@@H]3O[C@H]1C[C@H](NC(=N)CCCSSC[C@H](NC(C)=O)C(=O)N[C@@H](Cc2c[nH]c3ccccc23)C(=O)N[C@@H](Cc2c[nH]c3ccccc23)C(=O)N[C@@H](Cc2c[nH]c3ccccc23)C(=O)N[C@@H](Cc2c[nH]c3ccccc23)C(=O)N[C@@H](Cc2c[nH]c3ccccc23)C(=O)N[C@@H](Cc2c[nH]c3ccccc23)C(=O)N[C@@H](Cc2c[nH]c3ccccc23)C(=O)NCCCC[C@@H]2NC(=O)[C@H](CCCNC(=N)N)NC(=O)[C@H](CCCNC(=N)N)NC(=O)[C@H](CCCNC(=N)N)NC(=O)[C@H](CCCNC(=N)N)NC(=O)[C@H](CCCNC(=N)N)NC2=O)[C@H](O)[C@H](C)O1`, the values for the Activity in data set [1] and in data set [2] were 79% and “Non-Toxic”, respectively.
Turning to `N=C(N)NCCC[C@@H]1NC(=O)[C@H](CCCCNC(=O)[C@H](Cc2c[nH]c3ccccc23)NC(=O)[C@H](Cc2c[nH]c3ccccc23)NC(=O)[C@H](Cc2c[nH]c3ccccc23)NC(=O)[C@H](Cc2c[nH]c3ccccc23)NC(=O)[C@H](Cc2c[nH]c3ccccc23)NC(=O)[C@H](Cc2c[nH]c3ccccc23)NC(=O)[C@H](Cc2c[nH]c3ccccc23)NC(=O)CCN)NC(=O)[C@H](CCCNC(=N)N)NC(=O)[C@H](CCCNC(=N)N)NC(=O)[C@H](CCCNC(=N)N)NC(=O)[C@H](CCCNC(=N)N)NC1=O`, the Activity is recorded as 68% in data set [3]; 87% in data set [4]; 71% in [5]; “Non-Toxic” in data set [6]; 10% in data set [7]; 21% in [9]. The Activity in [10] was 19%; in data set [11], 24%. Moreover, in data set [8], the result was inactive.

Values taken from ChEMBL document CHEMBL5036344, “Design and application of hybrid cyclic-linear peptide-doxorubicin conjugates as a strategy to overcome doxorubicin resistance and toxicity” (Eur J Med Chem, 2021).
